{"source": "patent US8609847B2", "about": "“Dihydroquinolinone derivatives” (Taisho Pharmaceutical Co., Ltd, priority 2009, dated 2013)", "target": "T1, human H3 receptor (Homo sapiens, UniProt Q9Y5N1)", "T1 construct": "purchased Perkin Elmer ES-392-M400UA; host or cells: CHO-K1 cells (recombinant expression), membrane preparation", "T1 sequence (Q9Y5N1 whole entry)": "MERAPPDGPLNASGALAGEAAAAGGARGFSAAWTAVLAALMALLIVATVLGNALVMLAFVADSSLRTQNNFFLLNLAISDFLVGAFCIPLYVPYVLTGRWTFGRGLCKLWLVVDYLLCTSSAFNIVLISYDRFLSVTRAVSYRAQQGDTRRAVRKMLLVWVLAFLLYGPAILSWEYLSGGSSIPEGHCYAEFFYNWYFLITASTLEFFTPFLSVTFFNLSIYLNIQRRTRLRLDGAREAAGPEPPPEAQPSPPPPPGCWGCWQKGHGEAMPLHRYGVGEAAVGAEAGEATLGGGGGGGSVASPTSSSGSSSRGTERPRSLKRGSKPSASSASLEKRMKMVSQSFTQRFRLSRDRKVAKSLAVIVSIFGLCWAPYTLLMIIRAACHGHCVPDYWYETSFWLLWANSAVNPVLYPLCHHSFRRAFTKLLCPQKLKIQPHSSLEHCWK", "assay": "H3 Receptor Binding Test", "settings": "50% inhibition of R(−)-α-methyl[3H]histamine (1 nM) binding; membrane preparation of human H3 receptor-expressing CHO-K1 cells", "experimental": "A membrane preparation of human H3 receptor-expressing CHO-K1 cells (Perkin Elmer, ES-392-M400UA, 15 μg protein/200 μl), R(−)-α-methyl[^3H]histamine (Amersham, TRK-1017, specific activity: 1.74 TBq/mmol, 1 nM) and a test drug were reacted at room temperature for 1 hour. After completion of the reaction, the reaction mixture was subjected to suction filtration through a 0.3% polyethyleneimine-treated glass filter (GF/C). The glass filter was washed five times with 50 mM Tris-HCl washing solution (pH 7.4) containing 5 mM EDTA. After washing, the glass filter was dried and a scintillator was added thereto, followed by measurement of radioactivity on the filter using a liquid scintillation counter.\nBinding of R(−)-α-methyl[^3H]histamine in the presence of 10 μM R(−)-α-methylhistamine was defined as non-specific binding, and the difference between total binding and non-specific binding of R(−)-α-methyl[^3H]histamine was defined as specific binding of R(−)-α-methyl[^3H]histamine. A fixed concentration (1 nM) of R(−)-α-methyl[^3H]histamine was reacted under the above conditions with each test drug at various concentrations to obtain an inhibition curve. The inhibition curve was used to determine the concentration (IC50) of each test drug required for 50% inhibition of R(−)-α-methyl[^3H]histamine binding.", "note": "pIC50: −log10 of the molar value.", "data": [{"smiles": "C[C@@H]1CCCN1CCCOc1ccc2c(c1)CCC(=O)N2c1ccccn1", "note": "[Compound No. 34, 6-{3-[(2R)-2-methylpyrrolidin-1-yl]propoxy}-1-(pyridin-2-yl)-3,4-dihydroquinolin-2(1H)-one]", "values": [{"measurement": "pIC50", "value": 8.09}]}, {"smiles": "Cc1ccc(Oc2ccc(N3C(=O)CCc4cc(OCCCN5CCC[C@H]5C)ccc43)cc2)nn1", "note": "[Compound No. 20, 1-{4-[(6-methylpyridazin-3-yl)oxy]phenyl}-6-{3-[(2R)-2-methylpyrrolidin-1-yl]propoxy}-3,4-dihydroquinolin-2(1H)-one]", "values": [{"measurement": "pIC50", "value": 9.00}]}, {"smiles": "CCOc1ccc(N2C(=O)CCc3cc(OCCCN4CCC[C@H]4C)ccc32)cc1", "note": "[Compound No. 5, 1-(4-ethoxyphenyl)-6-{3-[(2R)-2-methylpyrrolidin-1-yl]propoxy}-3,4-dihydroquinolin-2(1H)-one]", "values": [{"measurement": "pIC50", "value": 8.41}]}, {"smiles": "COc1ccc(N2C(=O)CCc3cc(OC4CCN(C(C)(C)C)CC4)ccc32)cn1", "note": "[Compound No. 65, 6-[(1-tert-butylpiperidin-4-yl)oxy]-1-(6-methoxypyridin-3-yl)-3,4-dihydroquinolin-2(1H)-one]", "values": [{"measurement": "pIC50", "value": 7.92}]}, {"smiles": "C[C@@H]1CCCN1CCCOc1ccc2c(c1)CCC(=O)N2c1ccc(N2CCOCC2)cc1", "note": "[Compound No. 17, 6-{3-[(2R)-2-methylpyrrolidin-1-yl]propoxy}-1-[4-(morpholin-4-yl)phenyl]-3,4-dihydroquinolin-2(1H)-one]", "values": [{"measurement": "pIC50", "value": 7.39}]}, {"smiles": "COc1ccc(N2C(=O)CCc3cc(OCCCN4CCC[C@H]4C)ccc32)cc1C#N", "note": "[Compound No. 33, 2-methoxy-5-[6-{3-[(2R)-2-methylpyrrolidin-1-yl]propoxy}-2-oxo-3,4-dihydroquinolin-1(2H)-yl]benzonitrile]", "values": [{"measurement": "pIC50", "value": 8.40}]}, {"smiles": "COc1cccc(N2C(=O)CCc3cc(OCCCN4CCC[C@H]4C)ccc32)c1", "note": "[Compound No. 22, 1-(3-methoxyphenyl)-6-{3-[(2R)-2-methylpyrrolidin-1-yl]propoxy}-3,4-dihydroquinolin-2(1H)-one]", "values": [{"measurement": "pIC50", "value": 8.80}]}, {"smiles": "C[C@@H]1CCCN1CCCOc1ccc2c(c1)CCC(=O)N2c1cncc(C#N)c1", "note": "[Compound No. 50, 5-[6-{3-[(2R)-2-methylpyrrolidin-1-yl]propoxy}-2-oxo-3,4-dihydroquinolin-1(2H)-yl]pyridine-3-carbonitrile]", "values": [{"measurement": "pIC50", "value": 8.24}]}, {"smiles": "C[C@@H]1CCCN1CCCOc1ccc2c(c1)CCC(=O)N2c1ccc(CO)cc1", "note": "[Compound No. 10, 1-[4-(hydroxymethyl)phenyl]-6-{3-[(2R)-2-methylpyrrolidin-1-yl]propoxy}-3,4-dihydroquinolin-2(1H)-one]", "values": [{"measurement": "pIC50", "value": 8.80}]}, {"smiles": "CC(C)(C)N1CCC(Oc2ccc3c(c2)CCC(=O)N3c2ccc(F)cc2)CC1", "note": "[Compound No. 66, 6-[(1-tert-butylpiperidin-4-yl)oxy]-1-(4-fluorophenyl)-3,4-dihydroquinolin-2(1H)-one]", "values": [{"measurement": "pIC50", "value": 8.43}]}, {"smiles": "C[C@@H]1CCCN1CCCOc1ccc2c(c1)CCC(=O)N2c1cc(Cl)cc(C#N)c1", "note": "[Compound No. 31, 3-chloro-5-[6-{3-[(2R)-2-methylpyrrolidin-1-yl]propoxy}-2-oxo-3,4-dihydroquinolin-1(2H)-yl]benzonitrile]", "values": [{"measurement": "pIC50", "value": 8.72}]}, {"smiles": "COc1ccc(N2C(=O)CCc3cc(OC4CCN(C5CCC5)CC4)ccc32)cn1", "note": "[Compound No. 67, 6-[(1-cyclobutylpiperidin-4-yl)oxy]-1-(6-methoxypyridin-3-yl)-3,4-dihydroquinolin-2(1H)-one]", "values": [{"measurement": "pIC50", "value": 8.57}]}, {"smiles": "N#Cc1cccc(N2C(=O)CCc3cc(OC4CCN(C5CCC5)CC4)ccc32)c1", "note": "[Compound No. 74, 3-{6-[(1-cyclobutylpiperidin-4-yl)oxy]-2-oxo-3,4-dihydroquinolin-1(2H)-yl}benzonitrile]", "values": [{"measurement": "pIC50", "value": 8.89}]}, {"smiles": "C[C@@H]1CCCN1CCCOc1ccc2c(c1)CCC(=O)N2c1ccn(C)c(=O)c1", "note": "[Compound No. 54, 1-(1-methyl-2-oxo-1,2-dihydropyridin-4-yl)-6-{3-[(2R)-2-methylpyrrolidin-1-yl]propoxy}-3,4-dihydroquinolin-2(1H)-one]", "values": [{"measurement": "pIC50", "value": 8.32}]}, {"smiles": "COc1ccc(N2C(=O)CCc3cc(OCCCN4CCC[C@H]4C)ccc32)c(OC)c1", "note": "[Compound No. 25, 1-(2,4-dimethoxyphenyl)-6-{3-[(2R)-2-methylpyrrolidin-1-yl]propoxy}-3,4-dihydroquinolin-2(1H)-one]", "values": [{"measurement": "pIC50", "value": 8.70}]}, {"smiles": "C[C@@H]1CCCN1CCCOc1ccc2c(c1)CCC(=O)N2c1ccc(OC(F)(F)F)cc1", "note": "[Compound No. 9, 6-{3-[(2R)-2-methylpyrrolidin-1-yl]propoxy}-1-[4-(trifluoromethoxy)phenyl]-3,4-dihydroquinolin-2(1H)-one]", "values": [{"measurement": "pIC50", "value": 8.46}]}, {"smiles": "C[C@@H]1CCCN1CCCOc1ccc2c(c1)CCC(=O)N2c1ccc2[nH]ccc2c1", "note": "[Compound No. 56, 1-(1H-indol-5-yl)-6-{3-[(2R)-2-methylpyrrolidin-1-yl]propoxy}-3,4-dihydroquinolin-2(1H)-one]", "values": [{"measurement": "pIC50", "value": 8.89}]}, {"smiles": "C[C@@H]1CCCN1CCCOc1ccc2c(c1)CCC(=O)N2c1cccc(C(=O)N(C)C)c1", "note": "[Compound No. 21, N,N-dimethyl-3-[6-{3-[(2R)-2-methylpyrrolidin-1-yl]propoxy}-2-oxo-3,4-dihydroquinolin-1(2H)-yl]benzamide]", "values": [{"measurement": "pIC50", "value": 7.59}]}, {"smiles": "C[C@@H]1CCCN1CCCOc1ccc2c(c1)CCC(=O)N2c1cncc(F)c1", "note": "[Compound No. 52, 1-(5-fluoropyridin-3-yl)-6-{3-[(2R)-2-methylpyrrolidin-1-yl]propoxy}-3,4-dihydroquinolin-2(1H)-one]", "values": [{"measurement": "pIC50", "value": 8.92}]}, {"smiles": "O=C1CCc2cc(OCCCN3CCCCC3)ccc2N1c1ccc(F)cc1", "note": "[Compound No. 82, 1-(4-fluorophenyl)-6-[3-(piperidin-1-yl)propoxy]-3,4-dihydroquinolin-2(1H)-one]", "values": [{"measurement": "pIC50", "value": 8.04}]}, {"smiles": "COc1ccc(N2C(=O)CCc3cc(OCCCN4CCC[C@H]4C)ccc32)cc1", "note": "[Compound No. 4, 1-(4-methoxyphenyl)-6-{3-[(2R)-2-methylpyrrolidin-1-yl]propoxy}-3,4-dihydroquinolin-2(1H)-one]", "values": [{"measurement": "pIC50", "value": 8.57}]}, {"smiles": "C[C@@H]1CCCN1CCCOc1ccc2c(c1)CCC(=O)N2c1ccc(Cl)cc1", "note": "[Compound No. 7, 1-(4-chlorophenyl)-6-{3-[(2R)-2-methylpyrrolidin-1-yl]propoxy}-3,4-dihydroquinolin-2(1H)-one]", "values": [{"measurement": "pIC50", "value": 8.80}]}, {"smiles": "C[C@@H]1CCCN1CCCOc1ccc2c(c1)CCC(=O)N2c1ccc2ncccc2c1", "note": "[Compound No. 38, 6-{3-[(2R)-2-methylpyrrolidin-1-yl]propoxy}-3,4-dihydro-2H-1,6′-biquinolin-2-one]", "values": [{"measurement": "pIC50", "value": 8.54}]}, {"smiles": "C[C@@H]1CCCN1CCCOc1ccc2c(c1)CCC(=O)N2c1ncccc1C#N", "note": "[Compound No. 51, 2-[6-{3-[(2R)-2-methylpyrrolidin-1-yl]propoxy}-2-oxo-3,4-dihydroquinolin-1(2H)-yl]pyridine-3-carbonitrile]", "values": [{"measurement": "pIC50", "value": 7.89}]}, {"smiles": "O=C1CCc2cc(OCCCN3CCCC3)ccc2N1c1cc(F)cc(F)c1", "note": "[Compound No. 80, 1-(3,5-difluorophenyl)-6-[3-(pyrrolidin-1-yl)propoxy]-3,4-dihydroquinolin-2(1H)-one]", "values": [{"measurement": "pIC50", "value": 7.66}]}, {"smiles": "C[C@@H]1CCCN1CCCOc1ccc2c(c1)CCC(=O)N2c1ccc(C(F)(F)F)cc1", "note": "[Compound No. 8, 6-{3-[(2R)-2-methylpyrrolidin-1-yl]propoxy}-1-[4-(trifluoromethyl)phenyl]-3,4-dihydroquinolin-2(1H)-one]", "values": [{"measurement": "pIC50", "value": 8.80}]}, {"smiles": "CC(C)(C)N1CCC(Oc2ccc3c(c2)CCC(=O)N3c2ccccc2)CC1", "note": "[Compound No. 61, 6-[(1-tert-butylpiperidin-4-yl)oxy]-1-phenyl-3,4-dihydroquinolin-2(1H)-one]", "values": [{"measurement": "pIC50", "value": 8.62}]}, {"smiles": "C[C@@H]1CC[C@@H](C)N1CCCOc1ccc2c(c1)CCC(=O)N2c1ccc(F)cc1", "note": "[Compound No. 84, 6-{3-[(2R,5R)-2,5-dimethylpyrrolidin-1-yl]propoxy}-1-(4-fluorophenyl)-3,4-dihydroquinolin-2(1H)-one]", "values": [{"measurement": "pIC50", "value": 8.30}]}, {"smiles": "O=C1CCc2cc(OCCCN3CCCC3)ccc2N1c1cccc(F)c1", "note": "[Compound No. 79, 1-(3-fluorophenyl)-6-[3-(pyrrolidin-1-yl)propoxy]-3,4-dihydroquinolin-2(1H)-one]", "values": [{"measurement": "pIC50", "value": 7.77}]}, {"smiles": "C[C@@H]1CCCN1CCCOc1ccc2c(c1)CCC(=O)N2c1ccc2c(c1)OCO2", "note": "[Compound No. 44, 1-(1,3-benzodioxol-5-yl)-6-{3-[(2R)-2-methylpyrrolidin-1-yl]propoxy}-3,4-dihydroquinolin-2(1H)-one]", "values": [{"measurement": "pIC50", "value": 8.92}]}, {"smiles": "COc1ccc(N2C(=O)CCc3cc(OCCCN4CCC[C@H]4C)ccc32)cn1", "note": "[Compound No. 48, 1-(6-methoxypyridin-3-yl)-6-{3-[(2R)-2-methylpyrrolidin-1-yl]propoxy}-3,4-dihydroquinolin-2(1H)-one]", "values": [{"measurement": "pIC50", "value": 8.06}]}, {"smiles": "C[C@@H]1CCCN1CCCOc1ccc2c(c1)CCC(=O)N2c1ccc2c(ccn2C(=O)OC(C)(C)C)c1", "note": "[Compound No. 41, tert-butyl 5-[6-{3-[(2R)-2-methylpyrrolidin-1-yl]propoxy}-2-oxo-3,4-dihydroquinolin-1(2H)-yl]-1H-indole-1-carboxylate]", "values": [{"measurement": "pIC50", "value": 7.28}]}, {"smiles": "C[C@@H]1CCCN1CCCOc1ccc2c(c1)CCC(=O)N2c1ccc(C(=O)N2CCCC2)cc1", "note": "[Compound No. 14, 6-{3-[(2R)-2-methylpyrrolidin-1-yl]propoxy}-1-[4-(pyrrolidin-1-ylcarbonyl)phenyl]-3,4-dihydroquinolin-2(1H)-one]", "values": [{"measurement": "pIC50", "value": 8.24}]}]}
